Converted amounts (≈) assume the structure as drawn. “Also recorded” adds a separate entry of the source. Where two headings read alike, the source gives them in different places.
What was measured:
[1] = tested on: sCLU secreted from human U-87 MG glioblastoma cells; test: Human sCLU AlphaLISA on supernatant of U-87 MG cells (HTS, re-test, dose response); type: cell-based; conditions: for sCLU levels relative to DMSO control: 5 µM
Method: Cell culture supernatant (2 μL) was added to a 384-well proxy plate preloaded with AlphaLISA HiBlock buffer (2 µL, 1X, CAT#AL004C, Perkin Elmer). Then an anti-sCLU antibody mixture (2 µL, mAb J84, biotinylated (10 nM, Cat# 3717-6-1000, Mabtech) and mAb CLU aa 22-227 (Cat#AF7084, R&D Systems), Acceptor bead conjugated (50 µg/mL, Cat#6772001, Perkin Elmer)) was added and incubated at room temperature for 1 hour. AlphaScreen Streptavidin Donor beads (2 µL, Cat#6760002S, Perkin Elmer) were added, incubated for an additional 30 min in the dark, and the plate was read in an Envision plate reader.
Human glioblastoma U-87 MG cells were proliferated in EMEM with 10% FBS and 1% P/S (complete medium) in 10 cm dishes until approximately 90% confluent. Following trypsinization, a suspension of 2 × 10^5 cells/mL (25 µL) were added to 384-well plates containing complete medium (25 µL) and library compounds from 9 plates (5 µM). After incubation for 30 h at 37 °C and 5% CO2, 2 μL of cell culture supernatant were analyzed via human sCLU AlphaLISA as described above. Cell culture medium and cells were added to the 384-well plates using the MultiDrop. The BioMek FX was used to pin the drugs and transfer the cell culture supernatant. The MANTIS liquid handler was used to added human sCLU AlphaLISA reagents.
Human glioblastoma U-87 MG cells were proliferated in EMEM with 10% FBS and 1% P/S (complete medium) in 10 cm dishes until approximately 90% confluent. […] After incubation for 30 hours at 37 °C and 5% CO2, 2 μL of cell culture supernatant were analyzed via human sCLU AlphaLISA as described above.

[2] = tested on: nCLU levels in U-87 MG cells; test: nCLU levels in U-87 MG cells; type: cell-based, human; conditions: 5 µM
Kinetic solubility = type: physicochemical; conditions: aqueous buffer, kinetic from dmso stock, PBS pH 7.4, 37 °C, 100 µM nominal
Method: Test compound (10 mM, 100% DMSO) was diluted separately into aqueous buffer (100 µM; PBS pH 7.4) and DMSO at various concentrations (1000, 100, 10, 1, 0.1 µM). The solutions were then incubated at 37 °C for 90 min and centrifuged (16000xg, 5 min). An aliquot of each supernatant was analyzed by UV/Vis (if possible) or LC-MS/MS. A standard curve was made by plotting the known amount of analyte per standard in DMSO vs. absorbance or chromatographic peak area. Kinetic solubility (mM) was calculated using the trendline equation with maximum absorbance or chromatographic peak area observed in the aqueous sample.

[3] = Liver microsome stability assay; type: in vitro ADME; conditions: pH 7.4; human liver microsomes 0.5 mg/mL, NADPH, 37 °C, up to 120 min; read-out: Microsomal Stability t1/2
Method: An aliquot (1 µL) of test compound (1 mM, 100% DMSO) was added to an aqueous liver microsome solution (1000 µL, PBS pH 7.4, 0.5 mg/mL human liver microsomes (Thermo Fisher Scientific, Cat#HMMPL), 2 mM NADPH, 2 mM MgCl2) and incubated at 37 °C for 120 min. Aliquots (50 µL) of the microsome solution were taken at various time points (0, 5, 10, 15, 30, 60, 90, 120 min) and added to a reaction quenching solution (200 µL 100% Acetonitrile) containing an internal standard. Solutions were clarified by centrifugation (16,000 x g, 5 min), and the supernatants were transferred to new tubes and lyophilized. Samples were reconstituted in 100 µL of 50/50/0.1 (Water/Acetonitrile/Formic Acid) prior to analysis via liquid chromatography-tandem mass spectrometry (LC-MS/MS). Chromatographic peak areas normalized to the internal standard were plotted at each time point and the half-life (t1/2) of compound in liver microsomes was determined by using the trendline equation to calculate the time at which compound abundance was 50% of that at time point 0 (t0).

[4] = Plasma binding assay (dialysis); type: in vitro ADME; conditions: dialysis 4.5 hours, 37 °C
Method: (§1) Brain tissue was homogenized in PBS (pH 7.4) (1: 3 weight(mg)/volume(µL)) and the protein concentration was determined using the Micro BCA™ Protein Assay Kit (Thermo Fisher Scientific, Cat#23235). Brain homogenate was clarified and diluted to 20 mg/mL in PBS (pH 7.4). Either brain homogenate or plasma was and added to Slide-A-Lyzer™ MINI Dialysis Devices, 10 K MWCO dialysis cups (Thermo Fisher Scientific, Cat#PI88401) in a 48-well plate containing PBS (500 µL; pH 7.4). 1 µL of 1 mM compound was added to the brain homogenate (Final Concentration: 2 µM compound, 0.5% DMSO) and incubated on a rocker for 4.5 hours at 37 °C. 50 µL of brain homogenate or plasma (within the dialysis cup) and PBS (within the 48-well plate) were transferred to new microcentrifuge tubes containing 400 µL of quenching reagent (100% Acetonitrile) containing internal standard. Solutions were clarified by centrifugation (16,000 x g, 5 min), and the supernatants were transferred to new tubes and lyophilized. Samples were reconstituted in 100 µL of 50/50/0.1 (Water/Acetonitrile/Formic Acid) prior to analysis via liquid chromatography-tandem mass spectrometry (LC-MS/MS). The % of the unbound drug (fu,bound) was calculated using the following equation:
(§2) % Bound = [1− (PBS chromatographic peak area/ brain homogenate or plasma chromatographic peak area)] x 100

[5] = Brain tissue binding assay (dialysis); type: in vitro ADME; conditions: brain homogenate 20 mg/mL, 2 µM compound, dialysis 4.5 hours, 37 °C
Method: as §1, §2

[6] = Blood-Brain Barrier (BBB) permeability assay (IAM column, Pm); type: in vitro ADME; conditions: pH 7.4; Pm > 1.0 = CNS+
Method: A liquid chromatography-ultraviolet/visible spectroscopy (LC-UV/Vis) assay was performed on a 1290 Infinity HPLC system (Agilent Technologies) with an HPLC column containing immobilized phosphatidylcholine (IAM.PC.DD, Regis Technologies, Cat#774011, 5 µm 300 Å 100 ×4.6 mm). The HPLC method was a mixture of 6.7 mM phosphate buffer saline (pH 7.4; solvent A) and acetonitrile (solvent B), and a gradient was used for the elution of the compounds (min/%B: 0/20, 20/60, 21/20, 30/20). The retention time of the compound (tr) and void volume time of the column (t0) were recorded. Blood-brain barrier (BBB) permeability (Pm) was calculated using the following equations as described by Yoon et al. (10.1177/1087057105281656):
KIAM = (tr − t0) / t0; Pm = (KIAM / MW^4) x 10^10
Compounds with a Pm > 1.0 were determined to be BBB permeable (CNS + ) at pH 7.

BRD2 = BRD2 (Homo sapiens, UniProt P25440); test: BRD2 inhibition assay; type: biochemical
BRD2, sequence (P25440 whole entry): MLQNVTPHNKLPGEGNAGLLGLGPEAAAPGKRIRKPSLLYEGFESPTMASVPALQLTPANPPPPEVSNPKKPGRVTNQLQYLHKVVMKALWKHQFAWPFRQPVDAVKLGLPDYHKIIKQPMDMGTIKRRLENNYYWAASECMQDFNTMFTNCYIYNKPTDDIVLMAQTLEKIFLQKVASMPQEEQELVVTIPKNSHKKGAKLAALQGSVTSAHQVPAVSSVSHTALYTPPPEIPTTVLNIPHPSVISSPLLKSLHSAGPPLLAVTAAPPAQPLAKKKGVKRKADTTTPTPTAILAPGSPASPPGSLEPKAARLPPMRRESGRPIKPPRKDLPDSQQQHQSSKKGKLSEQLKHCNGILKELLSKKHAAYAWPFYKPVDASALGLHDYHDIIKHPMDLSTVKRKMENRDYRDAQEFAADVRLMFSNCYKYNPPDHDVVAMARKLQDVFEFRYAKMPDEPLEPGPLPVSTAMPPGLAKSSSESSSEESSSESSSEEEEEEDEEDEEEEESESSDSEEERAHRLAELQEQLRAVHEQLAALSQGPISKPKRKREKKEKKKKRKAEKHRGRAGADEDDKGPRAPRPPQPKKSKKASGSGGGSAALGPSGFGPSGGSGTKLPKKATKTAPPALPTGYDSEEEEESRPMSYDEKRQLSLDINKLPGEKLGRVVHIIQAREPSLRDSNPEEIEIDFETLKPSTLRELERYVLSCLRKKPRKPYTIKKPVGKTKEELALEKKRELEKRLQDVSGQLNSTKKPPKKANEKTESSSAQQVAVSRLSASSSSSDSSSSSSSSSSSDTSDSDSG

BRD4 = BRD4 (Homo sapiens, UniProt O60885); test: BRD4 inhibition assay; type: biochemical
U-87 MG cells = test: Cytotoxicity, MultiTox-Fluor (CNS gliotoxicity); conditions: U-87 MG cells, dose response (Fig. 2F)
Excerpt: Cell viability and toxicity were simultaneously assessed using the MultiTox-Fluor Multiplex Cytotoxicity Assay (Cat# PRG9200, Fisher Scientific) according to the manufacturer’s protocol.

[7] = Homo sapiens, U-87 MG cells, 30 h, AlphaLISA of supernatant, read-out: EC50 for sCLU increase
[8] = selective HDAC / BET inhibitors, dose response (Fig. S1), read-out: sCLU EC50
[9] = Homo sapiens, U-87 MG cells, dose response, text and figures, read-out: sCLU EC50

Row | SMILES | EC50 [1, 7] | solubility kinetic at 90 min (Kinetic solubility) | half-life at 1 µM [3] | Plasma Binding [4] | Brain Tissue Binding [5] | PAMPA Pm [6] | other results
1 | Cc1sc2c(c1C)C(c1ccc(Cl)cc1)=N[C@@H](CC(=O)OC(C)(C)C)c1nnc(C)n1-2 [(+)-JQ1, reference compound] | 313 nM | 86.5 µM (≈ 39.5 µg/mL) | 27 min | 85 % bound | 87 % bound | 1.44 | nCLU levels [2]: not affecting nCLU levels
2 | CCNC(=O)c1cc2c(-c3cc(C(C)(C)O)ccc3Oc3c(C)cc(F)cc3C)cn(C)c(=O)c2[nH]1 [ABBV-774] |  |  |  |  |  |  | potency as sCLU enhancer, comparison in words ([1]; U-87 MG cells, dose response): less potent sCLU enhancers than pan-BET inhibitors; EC50 [1, 8]: 1100 nM
3 | CCCc1nn(C)c2c(=O)[nH]c(-c3cc(Cc4ccc(C(=O)Nc5ccccc5N)cc4)ccc3OCC)nc12 [CM-675] |  |  |  |  |  |  | EC50 [1, 8]: 6000 nM
4 | Cc1sc2c(c1C)C(c1ccc(Cl)cc1)=N[C@@H](CC(=O)OC1CCCC1)c1nnc(C)n1-2 [DDL-351] | 117 nM | 57.5 µM (≈ 27 µg/mL) | 3 min | 99 % bound | 94 % bound | 1.35 | IC50 (BRD2): 175 nM; IC50 (BRD4): 27 nM
5 | Cc1sc2c(c1C)C(c1ccc(Cl)cc1)=N[C@@H](CC(=O)N1CCCC1)c1nnc(C)n1-2 [DDL-352] | 1440 nM | > 100 µM | 62 min | 96 % bound | 64 % bound | 0.98 | IC50 (BRD2; read-out: BRD2 IC50): 644 nM; IC50 (BRD4; read-out: BRD4 IC50): 105 nM
6 | Cc1sc2c(c1C)C(c1ccc(Cl)cc1)=N[C@@H](CC(=O)NC1CCCC1)c1nnc(C)n1-2 [DDL-353] | 977 nM | > 100 µM | 8 min | 93 % bound | 79 % bound | 1.08 | IC50 (BRD2; read-out: BRD2 IC50): 385 nM; IC50 (BRD4; read-out: BRD4 IC50): 63 nM
7 | Cc1sc2c(c1C)C(c1ccc(Cl)cc1)=N[C@@H](CC(=O)NCC(=O)OC(C)C)c1nnc(C)n1-2 [DDL-354] | 676 nM | 91.1 µM (≈ 45.6 µg/mL) | 12 min | 91 % bound | 67 % bound | 0.76 | IC50 (BRD2; read-out: BRD2 IC50): 382 nM; IC50 (BRD4; read-out: BRD4 IC50): 48 nM
8 | Cc1sc2c(c1C)C(c1ccc(Cl)cc1)=N[C@@H](CC(=O)OC1CCC1)c1nnc(C)n1-2 [DDL-355] | 99 nM | 63.7 µM (≈ 29 µg/mL) | 27 min | 86 % bound | 88 % bound | 1.42 | IC50 (BRD2): 163 nM; IC50 (BRD4): 19 nM
9 | CCCCOC(=O)C[C@@H]1N=C(c2ccc(Cl)cc2)c2c(sc(C)c2C)-n2c(C)nnc21 [DDL-358] | 446 nM | 59.3 µM (≈ 27.1 µg/mL) | 14 min | 98 % bound | 93 % bound | 1.42 | IC50 (BRD2): 207 nM; IC50 (BRD4): 28 nM
10 | Cc1sc2c(c1C)C(c1ccc(Cl)cc1)=NC(CC(=O)NC(C)C(=O)OC(C)C)c1nnc(C)n1-2 (centres unmarked) [DDL-359] | 2340 nM | > 100 µM | 13 min | 94 % bound | 44 % bound | 0.71 | IC50 (BRD2; read-out: BRD2 IC50): 130 nM; IC50 (BRD4; read-out: BRD4 IC50): 353 nM
11 | Cc1sc2c(c1C)C(c1ccc(Cl)cc1)=N[C@@H](CC(=O)NO)c1nnc(C)n1-2 [DDL-360] | 631 nM | > 100 µM | > 120 min | 88 % bound | 59 % bound | 1.09 | IC50 (BRD2; read-out: BRD2 IC50): 395 nM; IC50 (BRD4; read-out: BRD4 IC50): 70 nM
12 | COc1cc2c(cc1-c1c(C)noc1C)ncc1[nH]c(=O)n(C(C)c3ccccn3)c12 (centres unmarked) [I-BET151] |  |  |  |  |  |  | EC50 [1, 9]: 617 nM; sCLU levels relative to DMSO control ([1]; U-87 MG cells): increased sCLU; also recorded: significantly increase sCLU levels; nCLU levels [2]: not affecting nCLU levels
13 | O=C(NO)c1ccc(CNc2cccc3cccnc23)cc1 [MPT0G211] |  |  |  |  |  |  | EC50 [1, 8]: 10000 nM
14 | Cc1cc(/N=N/c2ccc(S(=O)(=O)Nc3ccccn3)cc2)c(N)cc1O [MS436] |  |  |  |  |  |  | potency as sCLU enhancer, comparison in words ([1]; U-87 MG cells, dose response): less potent sCLU enhancers than pan-BET inhibitors
15 | Nc1cc(F)ccc1NC(=O)/C=C/c1cnn(C/C=C/c2ccccc2)c1 [RGFP966] |  |  |  |  |  |  | EC50 ([1]; Homo sapiens, U-87 MG, selective HDAC / BET inhibitors, dose response 2-5000 nM (Fig. S1), read-out: sCLU EC50): 10100 nM
16 | O=C(/C=C/c1cccc(S(=O)(=O)Nc2ccccc2)c1)NO [belinostat] |  |  |  |  |  |  | EC50 [1, 9]: 1120 nM; sCLU levels relative to DMSO control ([1]; U-87 MG cells): increased sCLU; nCLU levels [2]: not affecting nCLU levels; cytotoxicity, comparison in words (U-87 MG cells): significant differences between belinostat and the BET inhibitors at the highest concentrations tested
17 | COc1cc(/C=C/C(=O)N2CCC=CC2=O)cc(OC)c1OC [piperlongumine] |  |  |  |  |  |  | sCLU levels relative to DMSO control ([1]; U-87 MG cells): significantly increase sCLU levels
18 | O=C(CCCCCCC(=O)Nc1ccccc1)NO [vorinostat] |  |  |  |  |  |  | nCLU levels [2]: not affecting nCLU levels
